The structures appear in SMILES notation. pKi: −log10 of the molar value.

For the test, the target named is T1, cloned human dopamine D3 receptors (Homo sapiens, UniProt P35462).
T1 construct: expressed in transfected cells; membrane homogenate
T1 sequence (P35462 whole entry): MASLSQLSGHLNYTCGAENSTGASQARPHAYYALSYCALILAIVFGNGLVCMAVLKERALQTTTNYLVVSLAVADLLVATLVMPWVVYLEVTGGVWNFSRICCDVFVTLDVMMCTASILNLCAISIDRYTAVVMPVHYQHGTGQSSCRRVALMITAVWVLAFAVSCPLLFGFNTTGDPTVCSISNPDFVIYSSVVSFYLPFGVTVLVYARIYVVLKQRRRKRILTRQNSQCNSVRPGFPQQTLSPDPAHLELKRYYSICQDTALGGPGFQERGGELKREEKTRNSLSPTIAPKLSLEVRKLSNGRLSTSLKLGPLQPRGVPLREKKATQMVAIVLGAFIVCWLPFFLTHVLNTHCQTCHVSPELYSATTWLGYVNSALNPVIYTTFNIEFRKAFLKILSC
Description: [N-Methyl-3H]Spiroperidol binding to cloned human dopamine D3 receptors (Protocol 1). Particulars: the 13th table, unit inferred; read-out: D3Ki. An excerpt:
[N-Methyl-^3H]Spiroperidol Binding to Cloned Human Dopamine D3 Receptors
This assay measures the in vitro activity of compounds on cloned human dopamine (D3) receptors and predicts the direct dopamine-blocking properties of putative neuropsychiatric agents at human dopamine D3 receptors.
The D3 gene was isolated from a human striatal cDNA library (Stratagene). The gene was sequenced and sub-cloned into the expression vector RC/RSV (Invitrogen). CHO (Chinese Hamster Ovary) cells were stably transfected with 10 μg of the D3/RSV plasmid using the DOTAP method from Boehringer Mannheim and 72 clones that were G418 resistant were isolated. Using mRNA and binding displacement data a single high expressing clone was identified. This clone was then grown in large batches for the purpose of developing a 96 well format assay.
• 1. One plate (10 cm) with approximately 2-3 million D3 cells per plate is incubated with 1 ml of Trypsin-EDTA at room temperature for ˜2 min or until cells have lifted off plates. Four ml of Ham's F12+10% Fetal Bovine Serum+1% Penicillin/Streptomycin+G418 (400 μg/ml) medium are added to resuspend cells and 1 ml of this is added to each large plate (15 cm) containing 19 ml of the-same medium as mentioned above. • 2. The 5 large plates are incubated at 37° C.+5% CO2 for ˜3 days or until the cells are confluent. • 3. After these plates are confluent, they are split into 10 large plates. Medium is aspirated off, 2 ml of Trypsin-EDTA are added to each plate and plates are incubated at RT for 2 min or until cells have lifted off the plate. Eight ml of the F12 medium (same medium as #1 above) are added to each plate (10 ml total) to resuspend the cells and 5 ml are transferred to the 2 new plates containing 15 ml of the F12 media. • 4. The 10 large plates are incubated at 37° C.+5% CO2 for ˜2 days or until the cells are confluent. • 5. The 10 large plates are split into 60 large plates (using Trypsin-EDTA as #3 except 4 ml of F12 medium are added to resuspend cells and 1 ml is aliquoted to 6 new plates containing 19 ml of F12 medium each). • 6. Plates are incubated at […]+5% CO2 for ˜3 days or until cell are confluent. • 7. The 60 large plates are then split into 60 roller bottles (100-150 million cells/bottle). Medium is aspirated off, 2 ml of Trypsin-EDTA are added to each plate and incubated at RT for ˜2 minutes or until cells have lifted off plates. Eight ml of F12 medium are added to each plate to resuspend cells and the entire 10 ml are added to 1 roller bottle containing 90 ml of the F12 medium. • 8. The 60 roller bottles are immediately placed on their sides and transferred to the roller bottle incubator. They are incubated at 37° C.+5% CO2 for ˜3-5 days. Cells are spun at 30-40% motor speed in the Forma incubator. • 9. Medium is poured off and cells are washed 2× in PBS. • 10. Cells are then scraped off in 20 ml of PBS and the bottles are rinsed again with 5 ml of PBS to remove any remaining cells. Cells are stored on ice before membrane preparation. • 11. The yield for 60 D3 roller bottles has varied from ˜260-500 mg. • Note: All tissue culture reagents are from Gibco-BRL. C. Membrane Preparation
The cells are harvested into 250 ml centrifuge tubes with 100 volumes of cold phosphate buffered saline (PBS) and spun down (1200×G for 10 min at 4° C.). The medium is removed and 100 ml PBS are added to each centrifuge tube, cells are resuspend and spun down again. The PBS is removed and the final pellet is homogenized in an appropriate volume of 10% DMSO with a polytron on ice at a medium setting.
1. 0.5M Tris Buffer, pH 7.7 • a) 44.4 g Tris HCl 26.5 g Tris Base q.s. to 1 Liter (0.5 M Tris buffer, pH 7.7 at 37° C.) • b) make a 1:10 dilution in distilled H2O (0.05 M. Tris buffer, pH 7.7) 2. Tris Buffer Containing Physiological Salts • a) Stock buffer • NaCl 7.014 g • KCl 0.372 g • CaCl2 0.222 g • MgCl2 0.204 g • q.s. To 100 ml with 0.5 M. Tris Buffer • b) Dilute 1:10 in distilled H2O […]
Turning to `Cc1nn(-c2ccccc2)nc1C(=O)NCCCCN1CCCN(c2csc3cc(F)ccc23)CC1` [S981833], the pKi is 8.05.

As to `O=C(NCCCCN1CCCN(c2csc3cc(F)ccc23)CC1)c1cccnc1Oc1ccccc1` [S981834], the pKi is 8.96.

Take `Cc1ccc(Sc2ncccc2C(=O)NCCCCN2CCCN(c3csc4cc(F)ccc34)CC2)cc1` [S981835]: the pKi was 8.92.

With `O=C(NCCCCN1CCCN(c2csc3cc(F)ccc23)CC1)c1ccno1` [S981836], the pKi is 7.34.

`Cc1nnsc1C(=O)NCCCCN1CCCN(c2csc3cc(F)ccc23)CC1` [S981837]: the pKi is 8.89.

In the case of `CSc1nsc(SC)c1C(=O)NCCCCN1CCCN(c2csc3cc(F)ccc23)CC1` [S981838], the pKi was 8.22.

Take `Cc1oc(-c2ccccc2)cc1C(=O)NCCCCN1CCCN(c2csc3cc(F)ccc23)CC1` [S981839]: the pKi is 8.85.

For the compound `Cc1oc(-c2ccc(Cl)cc2)cc1C(=O)NCCCCN1CCCN(c2csc3cc(F)ccc23)CC1` [S981840], the pKi is 8.47.

`O=C(NCCCCN1CCCN(c2csc3cc(F)ccc23)CC1)c1ccc(-c2ccccc2F)cc1` [S981842]: the pKi was 8.66.

As for `O=C(NCCCCN1CCCN(c2csc3cc(F)ccc23)CC1)c1cc(C(F)(F)F)cc(C(F)(F)F)c1` [S981844], the pKi is 7.41.

Turning to `COc1ccc(C(=O)NCCCCN2CCCN(c3csc4cc(F)ccc34)CC2)cc1` [S981845], the pKi was 9.00.

Consider `O=C(NCCCCN1CCCN(c2csc3cc(F)ccc23)CC1)c1ccc(F)cc1` [S981846], for which the pKi is 7.57.

For `O=C(NCCCCN1CCCN(c2csc3cc(F)ccc23)CC1)c1cc(Cl)cc(Cl)c1` [S981848], the pKi was 8.08.

As for `O=C(NCCCCN1CCCN(c2csc3cc(F)ccc23)CC1)c1cc(F)cc(F)c1` [S981849], the pKi is 8.30.

As to `O=C(/C=C/c1ccccc1)NCCCCN1CCCN(c2csc3cc(F)ccc23)CC1` [S981850], the pKi is 9.31.

For `O=C(NCCCCN1CCCN(c2csc3cc(F)ccc23)CC1)c1ccccc1I` [S981851], the pKi is 8.57.

As to `O=C(Cc1ccc(C(F)(F)F)cc1)NCCCCN1CCCN(c2csc3cc(F)ccc23)CC1` [S982508], the pKi was 7.39.

On to `O=C(Cc1ccc(Cl)cc1)NCCCCN1CCCN(c2csc3cc(F)ccc23)CC1` [S982509], for which the pKi is 7.89.

As to `COc1cccc(CC(=O)NCCCCN2CCCN(c3csc4cc(F)ccc34)CC2)c1` [S982510], the pKi is 8.23.

With `CS(=O)(=O)c1ccc(CC(=O)NCCCCN2CCCN(c3csc4cc(F)ccc34)CC2)cc1` [S982511], the pKi is 7.92.

Turning to `O=C(Cc1ccccc1Br)NCCCCN1CCCN(c2csc3cc(F)ccc23)CC1` [S982512], the pKi was 8.24.

Take `CC1(c2ccc(C(=O)NCCCCN3CCCN(c4csc5cc(F)ccc45)CC3)cc2)NC(=O)NC1=O` (stereo not shown) [S982513]: the pKi was 9.88.

With `O=C(Cc1ccccc1F)NCCCCN1CCCN(c2csc3cc(F)ccc23)CC1` [S982514], the pKi was 9.23.

As for `O=C(NCCCCN1CCCN(c2csc3cc(F)ccc23)CC1)c1cc([N+](=O)[O-])cc([N+](=O)[O-])c1` [S982535], the pKi is 8.28.

For `O=C(NCCCCN1CCCN(c2csc3cc(F)ccc23)CC1)c1cccc2c1-c1ccccc1C2=O` [S982536], the pKi was 8.85.

For `O=C(NCCCCN1CCCN(c2csc3cc(F)ccc23)CC1)c1ccc2c(c1)C(=O)c1ccccc1-2` [S982538], the pKi was 9.29.

`O=C(NCCCCN1CCCN(c2csc3cc(F)ccc23)CC1)c1ccc2c(c1)S(=O)(=O)c1ccccc1C2=O` [S982539]: the pKi is 9.10.

`O=C(NCCCCN1CCCN(c2csc3cc(F)ccc23)CC1)c1cc(Cl)ccc1[N+](=O)[O-]` [S982540]: the pKi is 8.92.

Take `O=C(NCCCCCN1CCCN(c2csc3cc(F)ccc23)CC1)c1c2ccccc2cc2ccccc12` [S982542]: the pKi is 7.24.

As for `O=C(NCCCCCN1CCCN(c2csc3cc(F)ccc23)CC1)c1cccs1` [S984485], the pKi is 7.50.

Take `O=C(NCCCCCN1CCCN(c2csc3cc(F)ccc23)CC1)c1cccc(Cl)c1` [S984486]: the pKi was 7.50.

Consider `COc1cc(OC)cc(C(=O)NCCCCCN2CCCN(c3csc4cc(F)ccc34)CC2)c1` [S984487], for which the pKi is 7.50.

Take `O=C(NCCCCCN1CCCN(c2csc3cc(F)ccc23)CC1)c1cccc2ccccc12` [S984489]: the pKi was 7.38.

Take `O=C(NCCCCCN1CCCN(c2csc3cc(F)ccc23)CC1)c1ccc2ccccc2c1` [S984490]: the pKi is 7.81.

Regarding `O=C(NCCCCCN1CCCN(c2csc3cc(F)ccc23)CC1)c1cccc(C(F)(F)F)c1` [S984491], the pKi is 7.27.

For the compound `COc1ccccc1C(=O)NCCCCCN1CCCN(c2csc3cc(F)ccc23)CC1` [S984492], the pKi is 7.46.

Take `O=C(NCCCCCN1CCCN(c2csc3cc(F)ccc23)CC1)c1cccc(F)c1` [S984493]: the pKi is 7.59.

In the case of `O=C(NCCCCCN1CCCN(c2csc3cc(F)ccc23)CC1)c1cc2ccccc2s1` [S984494], the pKi was 7.94.

In the case of `O=C(NCCCCCN1CCCN(c2csc3cc(F)ccc23)CC1)c1cccc2cc[nH]c12` [S984495], the pKi is 7.58.

With `CS(=O)(=O)c1sc(C(=O)NCCCCCN2CCCN(c3csc4cc(F)ccc34)CC2)c2c1CCC=C2` [S984496], the pKi was 8.07.

Take `O=C(NCCCCCN1CCCN(c2csc3cc(F)ccc23)CC1)c1cnc(-c2cccnc2)s1` [S984497]: the pKi is 7.31.

With `O=C(NCCCCCN1CCCN(c2csc3cc(F)ccc23)CC1)c1csnn1` [S984498], the pKi is 7.40.

For `O=C(NCCCCCN1CCCN(c2csc3cc(F)ccc23)CC1)c1sccc1-n1cccc1` [S984499], the pKi was 7.55.

On to `O=C(NCCCCCN1CCCN(c2csc3cc(F)ccc23)CC1)c1ccc(-c2ccccn2)s1` [S984501], for which the pKi was 7.80.

Take `O=C(NCCCCCN1CCCN(c2csc3cc(F)ccc23)CC1)c1cc2sccc2s1` [S984502]: the pKi was 8.19.

Consider `Cc1nn(C)c2sc(C(=O)NCCCCCN3CCCN(c4csc5cc(F)ccc45)CC3)cc12` [S984503], for which the pKi was 7.99.

For the compound `O=C(NCCCCCN1CCCN(c2csc3cc(F)ccc23)CC1)c1cc2ccccc2[nH]1` [S984504], the pKi is 7.77.

For the compound `COc1ccc2[nH]c(C(=O)NCCCCCN3CCCN(c4csc5cc(F)ccc45)CC3)cc2c1` [S984505], the pKi is 7.89.

As for `Cn1c(C(=O)NCCCCCN2CCCN(c3csc4cc(F)ccc34)CC2)cc2ccccc21` [S984506], the pKi was 7.48.

As for `O=C(NCCCCCN1CCCN(c2csc3cc(F)ccc23)CC1)c1c[nH]c2ccccc12` [S984507], the pKi is 7.21.

Regarding `O=C(NCCCCCN1CCCN(c2csc3cc(F)ccc23)CC1)c1cccc2[nH]ccc12` [S984508], the pKi was 7.46.

For the compound `O=C(NCCCCCN1CCCN(c2csc3cc(F)ccc23)CC1)c1ccc2[nH]ccc2c1` [S984509], the pKi is 7.92.

`O=C(NCCCCCN1CCCN(c2csc3cc(F)ccc23)CC1)c1ccc2cc[nH]c2c1` [S984510]: the pKi was 8.00.

As for `O=C(NCCCCCN1CCCN(c2csc3cc(F)ccc23)CC1)c1n[nH]c2ccccc12` [S984511], the pKi is 7.60.

As to `O=C(NCCCCN1CCCN(c2csc3cc(C(F)(F)F)ccc23)CC1)c1cc2ccccc2o1` [S984513], the pKi is 7.72.

(Values after patent publication US7550469B2, “Heterocyclic amide derivatives and their use as dopamine D3 receptor ligands” (Aventis Pharmaceuticals Inc., priority 2001, dated 2009).)
